Experiments:
[1] = system: ^51Cr-labelled erythrocytes; test: Half-life of 51Cr-labelled erythrocytes challenged in vitro with DDS N-hydroxylamine and re-introduced to autologous rats; format: in vivo; details: red cells incubated two hours with DDS N-hydroxylamine 0.05 to 0.5 millimolar with N-acetyl-L-cysteine 2 to 10 millimolar, reintroduced into autologous rat
Protocol: Blood is drawn from laboratory rats into heparinized tubes, washed using conventional methods, and resuspended in buffered saline solution. Red blood cells are labeled with ^51Cr as chromate using the CPD standard method known to those skilled in the art. After resuspension in isotonic saline, DDS N-hydroxylamine alone (control) or with N-acetyl-L-cysteine (treatment) are added at final concentrations of 0.05 to 0.5 millimolar and 2 millimolar to 10 millimolar, respectively, and incubated for two hours. A 0.5 milliliter sample of the washed and resuspended red blood cells is then reintroduced into the autologous animal. Half-life of the labeled erythrocytes is determined by blood sampling every two days and counting of radioactive decay in the sample using a gamma counter.

[2] = treatment of opportunistic infections associated with AIDS; cited from earlier work

CC(=O)N[C@@H](CS)C(=O)O [N-acetyl-L-cysteine]
Half-life of ^51Cr-labelled erythrocytes [1]: able to preserve the normal half-life

Nc1ccc(S(=O)(=O)c2ccc(N)cc2)cc1 [DDS, 4,4′-diaminodiphenylsulphone]
Discontinuation of clinical use due to toxicity [2]: about 25 % of patients

— patent publication US20060211748A1, “Sulphydryl compounds in combination with sulpha compounds” (priority 2002, published 2006)
